Data: ChEMBL document CHEMBL4732190, “Identification of Potent and Long-Acting Single-Chain Peptide Mimetics of Human Relaxin-2 for Cardiovascular Diseases” (J Med Chem, 2021)
≈ marks a conversion by molar mass, not a printed value. *1 amine or outer side, *2 acyl side, *3 side chain or, on linkers, in order; H or OH if unused. Where a SMILES comes first, the peptide text is derived from it. [ ]: non-standard residue; d: D form. β2hAla(2S) = C[C@@H](CN[*:1])C(=O)[*:2]; Nle = CCCC[C@H](N)C(=O)O

Columns and labels:
[1] = Stability in human plasma assessed as parent compound remaining level at 5 uM remaining after 4 hrs; type: ADME, cell-free; settings: read-out: Stabilty
[2] = molecular target: T1, Relaxin receptor 1 (Homo sapiens, UniProt Q9HBX9); assay: Agonist activity at RXFP1 endogenously expressed in human OVCAR-5 cells assessed as increase in IBMX-induced cAMP accumulation pretreated with IBMX for 40 mins followed by compound addition and measured after 30 mins by HTRF assay; type: functional, cell-based
T1 sequence (Q9HBX9 whole entry): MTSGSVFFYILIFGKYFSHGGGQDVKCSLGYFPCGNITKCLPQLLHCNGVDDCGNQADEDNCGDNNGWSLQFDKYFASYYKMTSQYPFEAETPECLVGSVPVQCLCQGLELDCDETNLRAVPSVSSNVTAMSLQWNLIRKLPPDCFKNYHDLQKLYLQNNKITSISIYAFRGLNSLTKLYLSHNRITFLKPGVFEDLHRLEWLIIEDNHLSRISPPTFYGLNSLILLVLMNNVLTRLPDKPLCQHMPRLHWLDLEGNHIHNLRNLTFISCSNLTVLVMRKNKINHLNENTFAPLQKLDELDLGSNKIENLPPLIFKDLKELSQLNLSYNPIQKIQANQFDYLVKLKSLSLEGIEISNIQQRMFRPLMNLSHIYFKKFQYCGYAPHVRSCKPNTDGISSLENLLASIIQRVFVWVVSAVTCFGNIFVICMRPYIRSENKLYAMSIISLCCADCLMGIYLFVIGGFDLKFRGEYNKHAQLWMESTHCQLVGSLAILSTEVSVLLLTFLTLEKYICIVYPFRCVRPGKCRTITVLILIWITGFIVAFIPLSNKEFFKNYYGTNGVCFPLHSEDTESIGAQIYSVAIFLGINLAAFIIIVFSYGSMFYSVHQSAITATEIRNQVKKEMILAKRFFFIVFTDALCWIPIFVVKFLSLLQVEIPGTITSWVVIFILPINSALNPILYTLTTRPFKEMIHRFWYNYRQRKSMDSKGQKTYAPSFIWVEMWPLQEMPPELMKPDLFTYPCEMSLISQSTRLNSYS

[3] = molecular target: T2, Relaxin receptor 1 (Homo sapiens) (UniProt Q9HBX9); assay: Agonist activity at RXFP1 endogenously expressed in human OVCAR-5 cells assessed as increase in IBMX-induced cAMP accumulation pretreated with IBMX for 40 mins followed by compound addition and measured after 30 mins by HTRF assay relative to relaxin; type: functional, cell-based; settings: filed as agonist
T2 sequence (whole entry): T1 sequence (Q9HBX9 whole entry)

[4] = Aqueous solubility of compound in acetate buffer at pH 4.5 measured after 24 hrs by UPLC analysis; type: physicochemical
[5] = Aqueous solubility of compound in phosphate buffer at pH 7.4 measured after 24 hrs by UPLC analysis; type: physicochemical
[6] = Stability in rat plasma assessed as parent compound remaining level at 5 uM remaining after 4 hrs; type: ADME, cell-free; settings: read-out: Stabilty
[7] = Positive chronotropic activity in pithed Sprague-Dawley rat assessed as increase in heart rate at 300 microg/kg, iv administered as bolus dose recorded over 60 mins relative to control; type: ADME, organism-based; settings: in vivo, 0.3 mg/kg, 1 h, dose 300 µg/kg
[8] = molecular target: T3, Relaxin receptor 1 (Rattus norvegicus, UniProt Q6R6I6); assay: Agonist activity at rat RXFP1 expressed in human […] cells assessed as increase in IBMX-induced cAMP accumulation pretreated with IBMX for 40 mins followed by compound addition and measured after 30 mins by HTRF assay; type: cell-based, HEK293
T3 sequence (Q6R6I6 whole entry): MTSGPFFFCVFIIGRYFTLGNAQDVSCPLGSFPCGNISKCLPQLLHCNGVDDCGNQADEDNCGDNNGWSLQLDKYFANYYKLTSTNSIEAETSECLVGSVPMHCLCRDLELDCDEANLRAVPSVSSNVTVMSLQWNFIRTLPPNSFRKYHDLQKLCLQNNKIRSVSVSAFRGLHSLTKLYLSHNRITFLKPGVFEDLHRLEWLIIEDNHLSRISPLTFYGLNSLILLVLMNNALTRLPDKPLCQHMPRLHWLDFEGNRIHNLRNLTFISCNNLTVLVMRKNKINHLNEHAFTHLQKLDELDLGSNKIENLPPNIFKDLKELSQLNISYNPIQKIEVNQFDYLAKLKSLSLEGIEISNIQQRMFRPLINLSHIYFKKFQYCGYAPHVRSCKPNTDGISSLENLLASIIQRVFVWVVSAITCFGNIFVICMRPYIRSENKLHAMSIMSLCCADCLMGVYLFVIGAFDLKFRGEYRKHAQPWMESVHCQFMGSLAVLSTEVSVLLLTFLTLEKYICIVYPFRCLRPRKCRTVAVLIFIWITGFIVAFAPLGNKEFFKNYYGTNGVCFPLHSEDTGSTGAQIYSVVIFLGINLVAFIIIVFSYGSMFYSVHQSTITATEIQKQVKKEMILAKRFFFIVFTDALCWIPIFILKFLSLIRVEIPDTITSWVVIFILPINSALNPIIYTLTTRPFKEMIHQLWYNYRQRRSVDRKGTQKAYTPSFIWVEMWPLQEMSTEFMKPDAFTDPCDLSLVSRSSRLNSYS

[9] = molecular target: T4, Relaxin receptor 1 (Rattus norvegicus) (UniProt Q6R6I6); assay: Agonist activity at rat RXFP1 expressed in human […] cells assessed as increase in IBMX-induced cAMP accumulation pretreated with IBMX for 40 mins followed by compound addition and measured after 30 mins by HTRF assay relative to control; type: cell-based; settings: HEK293, filed as agonist
T4 sequence (whole entry): T3 sequence (Q6R6I6 whole entry)

[10] = Half life in Sprague-Dawley rat at 1 mg/kg, iv measured upto 72 hrs by LC-HRMS analysis; type: ADME, organism-based; settings: in vivo
[11] = Positive chronotropic activity in pithed Sprague-Dawley rat assessed as increase in heart rate at 1000 mg/kg, iv administered as bolus dose measured after 60 mins post dose; type: ADME, organism-based; settings: in vivo, 1 h
[12] = Positive chronotropic activity in pithed Sprague-Dawley rat assessed as increase in heart rate at 10 microg/kg, iv administered as bolus dose recorded over 60 mins relative to control; type: ADME, organism-based; settings: in vivo, 0.01 mg/kg, 1 h, dose 10 µg/kg
[13] = molecular target: T1, Relaxin receptor 1; assay: Displacement of Eu3+-labelled H2 relaxin from human RXFP1 expressed in human HEK-293T cells in presence of 10 % FCS by competition binding assay; type: cell-based
[14] = molecular target: T1, Relaxin receptor 1; assay: Agonist activity at human RXFP1 expressed in human HEK-293T cells co-transfected with pCRE beta-galactosidase reporter plasmid assessed as […] of IBMX-induced cAMP accumulation incubated for 30 mins by HTRF assay; type: functional, cell-based

remaining at 4 h, 5 µM [1] [%] | solubility at 24 h [4] [µg/mL] | solubility at 24 h [5] [µg/mL] | remaining at 4 h, 5 µM [6] [%] | SMILES | EC50 [2] [nM] | Emax [3] [%] | Activity [7] [%] | EC50 [8] [nM] | Emax [9] [%] | half-life [10] [min] | Emin [11] [%] | Activity [12] [%] | Ki [13] [nM] | EC50 [14] [nM]
64 | 3300 (≈ 1190 µM) | 2900 (≈ 1050 µM) | 55 | CCCC[C@H](NC(=O)CNC(=O)[C@H](CCC(=O)O)NC(=O)[C@@H](C)CNC(=O)[C@@H](C)CNC(=O)[C@@H](NC(=O)[C@H](CCC(N)=O)NC(=O)[C@H](C)NC(=O)[C@H](CCCNC(=N)N)NC(=O)[C@@H](NC(=O)[C@H](CCCCN)NC(=O)[C@H](CCC(=O)O)NC(=O)[C@H](CCCNC(=N)N)NC(=O)CNC(=O)[C@H](CCC(=O)O)NC(=O)[C@H](CC(C)C)NC(C)=O)C(C)C)[C@@H](C)CC)C(=O)N[C@@H](CO)C(=O)N[C@H](C(=O)N[C@@H](Cc1c[nH]c2ccccc12)C(=O)N[C@@H](CO)C(=O)NC[C@H](C)C(=O)N[C@@H](CCCNC(=N)N)C(=O)N[C@@H](CCCCN)C(=O)N[C@@H](CCCCN)C(N)=O)[C@@H](C)O (Ac-LEGREKVRAQI[β2hAla(2S)][β2hAla(2S)]EG[Nle]STWS[β2hAla(2S)]RKK-NH2) | 12 | 99 | 40 | 5.3 | 83 | 19.2 | 43 | – | – | –
– | – | – | – | CC[C@H](C)[C@@H]1NC(=O)[C@H](C)NC(=O)[C@H]([C@@H](C)CC)NC(=O)[C@H](CCC(N)=O)NC(=O)[C@H](C)NC(=O)[C@H](CCCNC(=N)N)NC(=O)[C@H](C(C)C)NC(=O)[C@H](CC(C)C)NC(=O)[C@H](CCC(=O)O)NC(=O)[C@H](CCCNC(=N)N)NC(=O)CNC(=O)[C@@H](NC(=O)[C@H](CC(C)C)NC(=O)[C@H](CCCCN)NC(=O)[C@@H](NC(=O)[C@@H](NC(=O)[C@H](CCC(=O)O)NC(=O)[C@H](CCC(=O)O)NC(=O)[C@H](CCSC)NC(=O)[C@H](Cc2c[nH]c3ccccc23)NC(=O)[C@H](CO)NC(=O)[C@@H](N)CC(=O)O)C(C)C)[C@@H](C)CC)CSSC[C@@H]2NC(=O)[C@@H](NC(=O)[C@H](CCCCN)NC(=O)[C@H](CC(N)=O)NC(=O)[C@H](C)NC(=O)[C@H](CC(C)C)NC(=O)[C@H](C)NC(=O)[C@H](CO)NC(=O)[C@H](Cc3ccc(O)cc3)NC(=O)[C@@H](N)CC(C)C)CSCCSC[C@H](NC(=O)CNC(=O)[C@H](C(C)C)NC(=O)[C@H](Cc3cnc[nH]3)NC2=O)C(=O)N[C@@H]([C@@H](C)O)C(=O)N[C@@H](CCCCN)C(=O)N[C@@H](CCCNC(=N)N)C(=O)N[C@@H](CO)C(=O)N[C@@H](CC(C)C)C(=O)N[C@@H](C)C(=O)N[C@@H](CCCNC(=N)N)C(=O)N[C@@H](Cc2ccccc2)C(=O)NC(C(=O)O)CSSC[C@@H](C(=O)NCC(=O)N[C@@H](CCSC)C(=O)N[C@@H](CO)C(=O)N[C@H](C(=O)N[C@@H](Cc2c[nH]c3ccccc23)C(=O)N[C@@H](CO)C(=O)O)[C@@H](C)O)NC1=O (some centres undefined) | 0.42 | 100 | – | 0.5 | 100 | 27.6 | – | 60 | 1.1 | 0.0324
